Holding throughout (assay type): functional
The test system of experiment [1] is Enterococcus faecalis. The experiment is described as follows: Antibacterial activity against Enterococcus faecalis assessed as growth inhibition after 16 hrs by agar dilution method.
In experiment [2] the test system is Streptococcus pneumoniae. The experiment is described as follows: Antibacterial activity against penicillin-resistant Streptococcus pneumoniae assessed as growth inhibition after 16 hrs by agar dilution method.
Experiment [3] has as its system Staphylococcus epidermidis. The experiment is described as follows: Antibacterial activity against methicillin-resistant Staphylococcus epidermidis assessed as growth inhibition after 16 hrs by agar dilution method. On the technique in general: Agar dilution tests growth on a series of plates holding different concentrations.
The test system of experiment [4] is Staphylococcus epidermidis. The experiment is described as follows: Antibacterial activity against methicillin-sensitive Staphylococcus epidermidis assessed as growth inhibition after 16 hrs by agar dilution method.
The test system of experiment [5] is Staphylococcus aureus. The experiment is described as follows: Antibacterial activity against methicillin-resistant Staphylococcus aureus assessed as growth inhibition after 16 hrs by agar dilution method.
The test system of experiment [6] is Staphylococcus aureus. Put plainly: Antibacterial activity against methicillin-sensitive Staphylococcus aureus assessed as growth inhibition after 16 hrs by agar dilution method.
The test system of experiment [7] is Enterococcus faecalis. Put plainly: Ratio of linezolid MIC to compound MIC for Enterococcus faecalis.
Experiment [8] has as its system Staphylococcus epidermidis. Put plainly: Ratio of linezolid MIC to compound MIC for methicillin-sensitive Staphylococcus epidermidis.
In experiment [9] the test system is Staphylococcus aureus. Put plainly: Ratio of linezolid MIC to compound MIC for methicillin-sensitive Staphylococcus aureus.
Experiment [10] relates to Streptococcus pneumoniae. Put plainly: Ratio of linezolid MIC to compound MIC for penicillin-resistant Streptococcus pneumoniae.

We go through 20 compounds from ChEMBL document CHEMBL2396620, “Synthesis and biological evaluation of novel benzoxazinyl-oxazolidinones as potential antibacterial agents” (2013).

In brackets after ≈: the same amount, converted by molar mass.

As for `O=C1O[C@@H](Cn2ccnn2)[C@@H]2COc3cc(-c4ccc(Cn5ccnn5)nc4)ccc3N12`, the MIC (as a rule, the least concentration at which growth counts as inhibited) in the experiment with Enterococcus faecalis [1] amounted to 4 µg/mL (≈ 9.29 µM); in the experiment with Streptococcus pneumoniae [2], 2 µg/mL (≈ 4.65 µM); in experiment [3], 1 µg/mL (≈ 2.32 µM); in [4] it was 1 µg/mL (≈ 2.32 µM); in the experiment on Staphylococcus aureus [5] it was 1 µg/mL (≈ 2.32 µM); in the experiment with Staphylococcus aureus [6], 2 µg/mL (≈ 4.65 µM).
Turning to `N#Cc1ccc(-c2ccc3c(c2)OC[C@H]2[C@H](C(N)=O)OC(=O)N32)cn1`, the minimum inhibitory concentration (MIC) (with Enterococcus faecalis [1]; with Streptococcus pneumoniae [2]; in experiment [4]; in the experiment with Staphylococcus aureus [6]) was over 32 µg/mL each time.
Consider `Cc1nc(-c2ccc(-c3ccc4c(c3)OC[C@H]3[C@H](C(N)=O)OC(=O)N43)cn2)no1`, for which the MIC (in the experiment with Enterococcus faecalis [1]; with Streptococcus pneumoniae [2]; in [4]; with Staphylococcus aureus [6]) was over 32 µg/mL in each case.
As for `NC(=O)[C@@H]1OC(=O)N2c3ccc(-c4ccc(-n5ccoc5=O)nc4)cc3OC[C@@H]12`, the minimum inhibitory concentration (MIC) (in the experiment on Enterococcus faecalis [1]; with Streptococcus pneumoniae [2]; in [3]; in experiment [4]; in the experiment on Staphylococcus aureus [5]; in the experiment on Staphylococcus aureus [6]) was over 32 µg/mL throughout.
For `NC(=O)[C@@H]1OC(=O)N2c3ccc(-c4ccc(Cn5cncn5)nc4)cc3OC[C@@H]12`, the MIC (in the experiment on Enterococcus faecalis [1]; in the experiment with Streptococcus pneumoniae [2]; in experiment [3]; in experiment [4]; with Staphylococcus aureus [5]; in the experiment on Staphylococcus aureus [6]) was over 32 µg/mL throughout.
Take `CN1C[C@@H](c2ccc(-c3ccc4c(c3)OC[C@H]3[C@H](Cn5ccnn5)OC(=O)N43)cn2)OC1=O`: the MIC came out at 2 µg/mL (≈ 4.46 µM) with Enterococcus faecalis [1]; 0.25 µg/mL (≈ 0.557 µM) with Streptococcus pneumoniae [2]; 1 µg/mL (≈ 2.23 µM) in experiment [3]; 0.5 µg/mL (≈ 1.11 µM) in [4]; 1 µg/mL (≈ 2.23 µM) in the experiment on Staphylococcus aureus [5]; 0.5 µg/mL (≈ 1.11 µM) with Staphylococcus aureus [6].
`O=C1O[C@@H](Cn2ccnn2)[C@@H]2COc3cc(-c4ccc(CO)nc4)ccc3N12`: the MIC came to 4 µg/mL (≈ 10.5 µM) in the experiment on Enterococcus faecalis [1]; 2 µg/mL (≈ 5.27 µM) with Streptococcus pneumoniae [2]; 1 µg/mL (≈ 2.64 µM) in [3]; 1 µg/mL (≈ 2.64 µM) in [4]; 1 µg/mL (≈ 2.64 µM) in the experiment with Staphylococcus aureus [5]; 2 µg/mL (≈ 5.27 µM) in the experiment on Staphylococcus aureus [6].
In the case of `CC(O)c1ccc(-c2ccc3c(c2)OC[C@H]2[C@H](Cn4ccnn4)OC(=O)N32)cn1` (some centres not stated), the minimum inhibitory concentration (MIC) with Enterococcus faecalis [1] was 2 µg/mL (≈ 5.08 µM); with Streptococcus pneumoniae [2] it was 0.5 µg/mL (≈ 1.27 µM); in [3], 1 µg/mL (≈ 2.54 µM); in experiment [4] it was 1 µg/mL (≈ 2.54 µM); with Staphylococcus aureus [5], 1 µg/mL (≈ 2.54 µM); in the experiment with Staphylococcus aureus [6], 1 µg/mL (≈ 2.54 µM).
Consider `CC(=O)c1ccc(-c2ccc3c(c2)OC[C@H]2[C@H](Cn4ccnn4)OC(=O)N32)cn1`, for which the MIC with Enterococcus faecalis [1] turned out to be 2 µg/mL (≈ 5.11 µM); with Streptococcus pneumoniae [2], 0.25 µg/mL (≈ 0.639 µM); in experiment [3], 1 µg/mL (≈ 2.56 µM); in [4], 0.5 µg/mL (≈ 1.28 µM); in the experiment on Staphylococcus aureus [5] it was 0.5 µg/mL (≈ 1.28 µM); with Staphylococcus aureus [6], 0.5 µg/mL (≈ 1.28 µM).
`CCO/N=C(\C)c1ccc(-c2ccc3c(c2)OC[C@H]2[C@H](Cn4ccnn4)OC(=O)N32)cn1`: the MIC (with Enterococcus faecalis [1]; with Streptococcus pneumoniae [2]; in experiment [4]; in the experiment with Staphylococcus aureus [6]) was over 32 µg/mL in each case.
As to `C/C(=N\OC(C)C)c1ccc(-c2ccc3c(c2)OC[C@H]2[C@H](Cn4ccnn4)OC(=O)N32)cn1`, the MIC (with Enterococcus faecalis [1]; with Streptococcus pneumoniae [2]; in [4]; with Staphylococcus aureus [6]) was over 32 µg/mL each time.
For the compound `O=C1O[C@@H](Cn2ccnn2)[C@@H]2COc3cc(-c4ccc(Cn5cncn5)nc4)ccc3N12`, the Ratio (in the experiment with Enterococcus faecalis [7]; in [8]; in the experiment on Staphylococcus aureus [9]) was 2 throughout. The MIC was 1 µg/mL (≈ 2.32 µM) with Enterococcus faecalis [1]; 2 µg/mL (≈ 4.65 µM) with Streptococcus pneumoniae [2]; 0.5 µg/mL (≈ 1.16 µM) in experiment [3]; 0.5 µg/mL (≈ 1.16 µM) in experiment [4]; 0.5 µg/mL (≈ 1.16 µM) in the experiment with Staphylococcus aureus [5]; 0.5 µg/mL (≈ 1.16 µM) in the experiment on Staphylococcus aureus [6].
With `O=C1O[C@@H](Cn2ccnn2)[C@@H]2COc3cc(-c4ccc(Cn5ncnn5)nc4)ccc3N12`, the MIC with Enterococcus faecalis [1] came to 2 µg/mL (≈ 4.64 µM); in the experiment on Streptococcus pneumoniae [2], 2 µg/mL (≈ 4.64 µM); in experiment [3], 1 µg/mL (≈ 2.32 µM); in experiment [4], 0.5 µg/mL (≈ 1.16 µM); in the experiment on Staphylococcus aureus [5] it was 1 µg/mL (≈ 2.32 µM); in the experiment on Staphylococcus aureus [6], 1 µg/mL (≈ 2.32 µM).
As to `O=C1O[C@@H](Cn2ccnn2)[C@@H]2COc3cc(-c4ccc(Cn5cnnn5)nc4)ccc3N12`, the minimal inhibitory concentration (MIC) turned out to be 4 µg/mL (≈ 9.27 µM) with Enterococcus faecalis [1]; 4 µg/mL (≈ 9.27 µM) in the experiment on Streptococcus pneumoniae [2]; 1 µg/mL (≈ 2.32 µM) in experiment [3]; 1 µg/mL (≈ 2.32 µM) in experiment [4]; 2 µg/mL (≈ 4.64 µM) in the experiment with Staphylococcus aureus [5]; 2 µg/mL (≈ 4.64 µM) with Staphylococcus aureus [6].
On to `N#Cc1ccc(-c2ccc3c(c2)OC[C@H]2[C@H](Cn4ccnn4)OC(=O)N32)cn1`, for which the Ratio (with Enterococcus faecalis [7]; in the experiment on Streptococcus pneumoniae [10]; in [8]; in the experiment on Staphylococcus aureus [9]) was 4 throughout. The MIC came to 1 µg/mL (≈ 2.67 µM) in the experiment with Enterococcus faecalis [1]; 0.25 µg/mL (≈ 0.668 µM) in the experiment with Streptococcus pneumoniae [2]; 0.25 µg/mL (≈ 0.668 µM) in experiment [3]; 0.25 µg/mL (≈ 0.668 µM) in experiment [4]; 0.25 µg/mL (≈ 0.668 µM) in the experiment on Staphylococcus aureus [5]; 0.25 µg/mL (≈ 0.668 µM) in the experiment with Staphylococcus aureus [6].
Turning to `Cn1nnnc1-c1ccc(-c2ccc3c(c2)OC[C@H]2[C@H](Cn4ccnn4)OC(=O)N32)cn1`, the MIC with Enterococcus faecalis [1] was 4 µg/mL (≈ 9.27 µM); with Streptococcus pneumoniae [2] it was 2 µg/mL (≈ 4.64 µM); in experiment [3] it was 1 µg/mL (≈ 2.32 µM); in experiment [4] it was 1 µg/mL (≈ 2.32 µM); with Staphylococcus aureus [5] it was 1 µg/mL (≈ 2.32 µM); with Staphylococcus aureus [6], 2 µg/mL (≈ 4.64 µM).
In the case of `Cn1nnc(-c2ccc(-c3ccc4c(c3)OC[C@H]3[C@H](Cn5ccnn5)OC(=O)N43)cn2)n1`, the minimal inhibitory concentration (MIC) with Enterococcus faecalis [1] amounted to 4 µg/mL (≈ 9.27 µM); with Streptococcus pneumoniae [2] it was 1 µg/mL (≈ 2.32 µM); in experiment [3], 2 µg/mL (≈ 4.64 µM); in experiment [4], 1 µg/mL (≈ 2.32 µM); in the experiment with Staphylococcus aureus [5], 2 µg/mL (≈ 4.64 µM); in the experiment on Staphylococcus aureus [6], 2 µg/mL (≈ 4.64 µM).
Regarding `Cc1nc(-c2ccc(-c3ccc4c(c3)OC[C@H]3[C@H](Cn5ccnn5)OC(=O)N43)cn2)no1`, the MIC amounted to 8 µg/mL (≈ 18.5 µM) in the experiment with Enterococcus faecalis [1]; 1 µg/mL (≈ 2.32 µM) with Streptococcus pneumoniae [2]; 4 µg/mL (≈ 9.27 µM) in experiment [3]; 2 µg/mL (≈ 4.64 µM) in [4]; 2 µg/mL (≈ 4.64 µM) with Staphylococcus aureus [5]; 2 µg/mL (≈ 4.64 µM) with Staphylococcus aureus [6].
As to `O=C1O[C@@H](Cn2ccnn2)[C@@H]2COc3cc(-c4ccc(-n5cc(CO)oc5=O)nc4)ccc3N12`, the minimal inhibitory concentration (MIC) is 1 µg/mL (≈ 2.16 µM) in the experiment with Enterococcus faecalis [1]; 0.5 µg/mL (≈ 1.08 µM) in the experiment on Streptococcus pneumoniae [2]; 1 µg/mL (≈ 2.16 µM) in experiment [3]; 0.5 µg/mL (≈ 1.08 µM) in [4]; 1 µg/mL (≈ 2.16 µM) in the experiment with Staphylococcus aureus [5]; 0.5 µg/mL (≈ 1.08 µM) with Staphylococcus aureus [6].
Take `CC(=O)NC[C@H]1CN(c2ccc(N3CCOCC3)c(F)c2)C(=O)O1` [LINEZOLID]: the MIC (in [3]; in experiment [4]; in the experiment with Staphylococcus aureus [5]; with Staphylococcus aureus [6]) was 1 µg/mL (≈ 2.96 µM) in each case.
